Laboratory results from paper PMC8538057, “Direct Delivery of ANA-TA9, a Peptide Capable of Aβ Hydrolysis, to the Brain by Intranasal Administration” (Pharmaceutics, 2021).
Ends that are not written are not given here.

Experiment: In vitro stability in the plasma
Type: in vitro ADME
Details: rat plasma, 10 μL ANA-TA9 PBS solution (0.1 mg/mL or 1 mg/mL) added to 90 μL plasma, 37 °C, methanol deproteinization, LC/MS, three experiments
Protocol: After the anesthetization of rats with an i.p. application of the anesthetic mixture, the cerebrospinal fluid (CSF) was collected by cisternal puncture, followed by the collection of whole blood from the polyethylene cannula inserted into the right femoral artery. The blood was heparinized and centrifuged at 15,000 rpm for 10 min at 4 °C, and the supernatant was collected as plasma.
ANA-TA9 was dissolved in PBS at a concentration of 0.1 mg/mL or 1 mg/mL. Immediately before the incubation, 5 μL or 10 μL of the ANA-TA9 solution was added to 45 μL or 90 μL of CSF or plasma, respectively. Similarly, 10 μL of the ANA-TA9 solution was added to 90 μL of whole blood. At predetermined times after the incubation at 37 °C, the samples were cooled by placing them on ice. Methanol (1 mL) was added to the plasma and whole blood for deproteinization. The mixtures were then vortexed and centrifuged at 15,000 rpm for 5 min at 4 °C. […] The concentrations of ANA-TA9 in the plasma and whole blood were measured by LC/MS. The ANA-TA9 concentrations were measured in the CSF samples by LC/MS without any treatments.
Chromatographic separation was performed using a C18 analytical column (TSKgel ODS 100V, 3 μm, 2.0 mm × 100 mm; TOSOH, Tokyo, Japan). […] ANA-TA9 eluting from the column was detected with mass spectrometry under the positive mode. […] The calibration curves of ANA-TA9 in the plasma and the brain were determined.

concentration of ANA-TA9 in the plasma at 5 min after the start of the incubation: 20000 ng/mL
Sequence: SKGQAYRMI [ANA-TA9]
